Paper PMC11456916, “A screen for cell envelope stress uncovers an inhibitor of prolipoprotein diacylglyceryl transferase, Lgt, in Escherichiacoli” (iScience, 2024)
Where two headings read alike, the source gives them in different places.

How the values were obtained:
S. aureus MRSA JE2 = experiment: MIC assay with or without SPR741, S. aureus; assay type: cell-based, Staphylococcus aureus; conditions: for MIC: Staphylococcus aureus, MRSA
Experimental: We next sought to determine whether we could achieve growth inhibition of wild-type E. coli using MAC-0452936 and an antibiotic adjuvant. […] To that end, we determined the MIC of MAC-0452936 against wild-type E. coli in the presence and absence of a sub-MIC concentration of SPR741 (Figure S8B). […] We leveraged this combination to characterize the spectrum of activity of MAC-0452936 against a panel of Gram-negative pathogens (Table 2). In the presence of 8 μg/mL SPR741, we observed MAC-0452936 activity against the clinical E. coli isolates C0244 and CFT073 at 2 μg/mL as well as against Salmonella Typhimurium SL1344 at 4 μg/mL.
For MIC assays, cultures of bacteria were grown in LB broth. Overnight cultures were diluted (1:100) into fresh LB media and grown to the mid-log phase of growth (OD600 ∼0.5). Subcultures were then normalized to an OD600 of 0.1, and diluted (1:5000) into assay media. Assay plates were then incubated for 18 h at 37°C, then OD600 was measured using a Biotek Neo plate reader.

E. coli ΔtolC-pore = experiment: Time-kill assay; assay type: cell-based
Text: As Lgt is found at the inner membrane of Gram-negative bacteria, we sought to rule out physical perturbation of the membrane as the cause of the antibacterial activity observed for MAC-0452936. […] To that end, we treated both non-growing E. coli ΔtolC-pore in a nutrient-deplete medium (PBS) and actively growing E. coli ΔtolC-pore in a nutrient-replete medium (LB) with varying concentrations of MAC-0452936 and enumerated colony-forming units (CFUs) at different time points (Figure S9A). […] Indeed, MAC-0452936 reduced the bacterial counts of E. coli ΔtolC-pore to the limit of detection after 6 h at compound concentrations greater than 2 μg/mL. We then tested MAC-0452936 for hemolytic activity against human-derived red blood cells and cytotoxicity against HEK-293 cells. […] However, we did observe a modest decrease in the viability of HEK-293 cells when treated with concentrations of MAC-0452936 greater than 8 μg/mL.
E. coli ΔtolC-pore was grown overnight in LB broth. For killing in nutrient-deplete media, overnight culture was pelleted by centrifugation at 5,000g for 30 min, and resuspended in sterile PBS buffer. Cells in PBS were added to a microwell plate containing different concentrations of MAC-0452936 (100 μL final volume), and incubated for the specified time at 37°C with shaking. At the specified time points, cultures were pelleted by centrifugation 5,000g for 30 min at 4°C, then 10-fold serially diluted in PBS before being plated on LB agar for CFU enumeration. For killing of actively growing cells in nutrient replete media, overnight culture of E. coli ΔtolC-pore was diluted 1/1000 into fresh LB broth and grown at 37°C with shaking to the early-log phase of growth (∼2.5 h, OD600 ∼0.2). Cells in LB broth were then added to a microwell plate containing different concentrations of MAC-0452936 (100 μL final volume), and incubated for the specified time at 37°C with shaking. At the specified time points, cultures were pelleted by centrifugation 5,000g for 30 min at 4°C, then 10-fold serially diluted in PBS before being plated on LB agar for CFU enumeration.

`COc1ccc(C(=O)O/N=C(\c2cccs2)C(C)(C)C)cc1` [MAC-0452936, (Z)-2-Pivaloylthiophene O-(4-methoxybenzoyl) oxime] was tested. Which “MIC, S. aureus MRSA JE2 + 8 μg/mL SPR741” value (S. aureus MRSA JE2; 8 μg/mL SPR741) did it give?
The value was “did not observe MAC-0452936 activity”.

And the MIC (S. aureus MRSA JE2; read-out: MIC, S. aureus MRSA JE2 + 0 μg/mL SPR741)?
The MIC was > 64 mg/L.

What about the MIC (S. aureus MRSA JE2; read-out: MIC, S. aureus MRSA JE2 + 8 μg/mL SPR741) of the same compound?
Its MIC is > 64 mg/L.

What about the “compound concentrations that reduced bacterial counts to the limit of detection” value (E. coli ΔtolC-pore; LB, after 6 h) of the same compound?
Its value is “greater than 2 μg/mL”.

And the “killing of non-growing bacteria” value (E. coli ΔtolC-pore; nutrient-deplete medium (PBS), CFU)?
The value was “could not kill non-growing bacteria”.

And the “killing of actively growing bacteria” value (E. coli ΔtolC-pore; nutrient-replete medium (LB), CFU)?
Its value is “potent bactericidal activity”.
